Our source for the Kd, EC50 and IC50 values is patent publication US11242351B2, “Tricyclic inhibitors of the BCL6 BTB domain protein-protein interaction and uses thereof” (priority 2017, dated 2022).

Each structure is given as a SMILES string. pEC50, pIC50, pKd: −log10 of the molar value. Like-named read-outs stand apart in the source and are kept apart here.

Test [1] deals with BCL6 BTB domain (biotin-thrombin-BCL6 amino acids 1-129) (Homo sapiens (Human), UniProt P41182). Put plainly: Surface Plasmon Resonance (SPR) assay. Format: binding. The note with it: Biacore T200, single cycle kinetic analysis. How it is done:
Surface Plasmon Resonance (SPR) Assay
SPR studies were performed using a Biacore™ T200 instrument (GE Health Sciences Inc.). […] The Biacore flow rate was set at 100 μl/min. […] Curve fitting and KD calculations were performed with the Biacore T200 Evaluation software (GE Health Sciences Inc).
Background: In SPR one partner is held on a chip, and binding of the other changes the refractive index at the surface.

Test [2] deals with Karpas422 cells. Briefly: Tumor cell growth inhibition assay. The note with it: Homo sapiens, KARPAS-422, 144 h, read-out: GI Karpas EC50. Format: cell-based. How it is done:
Tumor Cell Growth Inhibition Assay:
Karpas422 cells were seeded into a 96-well plate at 2,000 cells/well in 150 μl medium (Alpha-MEM containing 10% FBS, […] Normocin, and […] Gentamycin, Invitrogen). A HP D300 digital dispenser was used to dose cells with DMSO or test compounds across a 10-point range of concentrations (high dose of 5 μM), and cultures were grown in a humidified 5% CO2 incubator at 37° C. After six days, plates were removed from incubator and equilibrated to room temperature. An equal volume of ATPlite assay reagent was added to each well, and samples were processed according to the manufacturer's instructions (Perkin Elmer). The luminescent signal was measured using an Envision plate reader equipped with a US-Luminescence detector.

In test [3] the test system is BCL6 reporter construct in SuDHL4-3×BCL6-TK-Luc cells. Briefly: Cell-based luciferase assay (BCL6 reporter). To be noted: 48 h, read-out: Luc IC50. How it is done:
Cell-Based Luciferase Assay:
A BCL6 reporter construct containing three copies of the consensus BCL6 binding site, the TK promoter, and the firefly luciferase gene was stably expressed in SuDHL4 cells after lentivirus infection and selection with Blasticidin. SuDHL4-3×BCL6-TK-Luc cells were seeded into a Viewplate 384-well assay dish at 15,000 cells/well in […] (Alpha-MEM high glucose containing 10% FBS, 25 mM HEPES, […] GlutaMAX, 100 µg/mL Normocin, and […] Gentamycin, Invitrogen). A HP D300 digital dispenser was used to dose cells with DMSO or test compounds across a 10-point range of concentrations (high dose of 10 μM), and cultures were grown in a humidified 5% CO2 incubator at 37° C. After two days, plates were removed from the incubator and equilibrated to room temperature. An equal volume of neolite reporter gene assay reagent was added to each well, and samples were processed according to the manufacturer's instructions (Perkin Elmer). The luminescent signal was measured using an Envision plate reader equipped with a US-Luminescence detector.

Setting [4] is: Karpas422 cells, six days, ATPlite.
Setting [5] is: SuDHL4-3×BCL6-TK-Luc cells, two days.

As to `COc1c(-c2cn(CC(=O)Nc3cc(N4CCN(C)C[C@@H]4C)nc(F)c3Cl)c3nc4n(c(=O)c23)CCC4)cc(C(N)=O)c(O)c1OC` [I-68, (S)-5-(1-(2-((3-chloro-6-(2,4-dimethylpiperazin-1-yl)-2-fluoro-pyridin-4-yl)amino)-2-oxoethyl)-4-oxo-4,6,7,8-tetrahydro-1H-dipyrrolo[1,2-a:2′,3′-d]pyrimidin-3-yl)-2-hydroxy-3,4-dimethoxy-benzamide], in test [1], the pKd was 7.50. Besides, the pEC50 in test [2] is 5.79. In addition, in test [3], the pIC50 was 5.47.
For `C[C@H]1CN(C2COC2)CCN1c1cc(NC(=O)Cn2cc(-c3cc(C(N)=O)c(O)c(Cl)c3F)c3c(=O)n4c(nc32)CCC4)c(Cl)c(F)n1` [I-26, (S)-3-chloro-5-(1-(2-((3-chloro-2-fluoro-6-(2-methyl-4-(oxetan-3-yl)piperazin-1-yl)pyridin-4-yl)amino)-2-oxoethyl)-4-oxo-4,6,7,8-tetrahydro-1H-dipyrrolo[1,2-a:2′,3′-d]pyrimidin-3-yl)-4-fluoro-2-hydroxy-benzamide], in test [1], the pKd is 7.52. In test [2] (setting [4]), the pEC50 was 6.26. The pIC50 in test [3] (setting [5]) was 6.23.
In turn, `C[C@H]1CN(C)CCN1c1cc(NC(=O)Cn2cc(-c3cc(C(N)=O)c(O)c4c3OCO4)c3c(=O)n4c(nc32)COCC4)c(Cl)c(F)n1` [I-94, (S)-7-(1-(2-((3-chloro-6-(2,4-dimethylpipera-zin-1-yl)-2-fluoro-pyridin-4-yl)amino)-2-oxoethyl)-4-oxo-4,6,7,9-tetrahydro-1H-pyrrolo[2′,3′:4,5]pyri-mido[2,1-c][1,4]oxazin-3-yl)-4-hydroxybenzo [d][1,3]dioxole-5-carboxamide] showed a negative logarithm of the Kd (pKd) in test [1] of 8.88. Moreover, the negative-log EC50 (pEC50) in test [2] (setting [4]) was 7.75. The pIC50 in test [3] (setting [5]) was 7.55.
In test [1], `C[C@@H]1CN(C)C[C@H](C)N1c1cc(NC(=O)Cn2cc(-c3cc(C(N)=O)c(O)c4c3OCO4)c3c(=O)n4c(nc32)CCC4)c(Cl)c(F)n1` [I-98, 7-(1-(2-((3-chloro-2-fluoro-6-((2R,6S)-2,4,6-trimethylpiperazin-1-yl)pyridin-4-yl)amino)-2-oxoethyl)-4-oxo-4,6,7,8-tetrahydro-1H-dipyrrolo [1,2-a:2′,3′-d]pyrimidin-3-yl)-4-hydroxybenzo [d][1,3]dioxole-5-carboxamide] gave a pKd of 9.02. Moreover, the pEC50 in test [2] is 8.07. Further, in test [3], the pIC50 is 8.09.
In test [1], `C[C@H]1CN(C2COC2)CCN1c1cc(NC(=O)Cn2cc(-c3cc(C(N)=O)c(O)c(F)c3F)c3c(=O)n4c(nc32)CCCC4)c(Cl)c(F)n1` [I-44, (S)-5-(1-(2-((3-chloro-2-fluoro-6-(2-methyl-4-(oxetan-3-yl)piperazin-1-yl)pyridin-4-yl)amino)-2-oxo-ethyl)-4-oxo-1,4,6,7,8,9-hexahydropyrido [1,2-a]pyrrolo[2,3-d]pyrimidin-3-yl)-3,4-difluoro-2-hydroxy-benzamide] gave a pKd of 7.60. In test [2], the pEC50 was 6.51. Moreover, the pIC50 in test [3] was 6.98.
On the same counts, the results for `C[C@H]1CN(C)C[C@H](C)N1c1cc(NC(=O)Cn2cc(-c3cc(C(N)=O)c(O)c(F)c3F)c3c(=O)n4c(nc32)CCC4)c(Cl)cn1` [I-54, 5-(1-(2-((5-chloro-2-((2S,6S)-2,4,6-trimethylpiperazin-1-yl)pyridin-4-yl)amino)-2-oxoethyl)-4-oxo-4,6,7,8-tetrahydro-1H-dipyrrolo[1,2-a:2′,3′-d]pyrimidin-3-yl)-3,4-difluoro-2-hydroxy-benzamide] are 7.01, 5.70 and 5.22.
Compound `C[C@H]1CN(CCC(F)(F)F)CCN1c1cc(NC(=O)Cn2cc(-c3cc(C(N)=O)c(O)c(F)c3F)c3c(=O)n4c(nc32)CCC4)c(Cl)cn1` [I-35, (S)-5-(1-(2-((5-chloro-2-(2-methyl-4-(3,3,3-trifluoropropyl)piperazin-1-yl)pyridin-4-yl)amino)-2-oxoethyl)-4-oxo-4,6,7,8-tetrahydro-1H-dipyrrolo[1,2-a:2′,3′-d]pyrimidin-3-yl)-3,4-difluoro-2-hydroxy-benzamide] gave a pKd in test [1] of 7.61. In addition, the pEC50 in test [2] (setting [4]) was 6.71. For the same compound, the pIC50 in test [3] (setting [5]) was 6.63.
Regarding `NC(=O)c1cc(-c2cn(CC(=O)Nc3cc(N4CCOCC4)ccc3Cl)c3nc4n(c(=O)c23)CCC4)c(F)c(F)c1O` [I-31, 5-(1-(2-((2-chloro-5-morpholinophenyl)amino)-2-oxoethyl)-4-oxo-4,6,7,8-tetrahydro-1H-dipyrrolo[1,2-a:2′,3′-d]pyrimidin-3-yl)-3,4-difluoro-2-hydroxy-benzamide], in test [1], the pKd was 6.85. For the same compound, in test [2], the pEC50 is 5.57. Moreover, the pIC50 in test [3] was 5.20.
In test [1], `C[C@H]1CN(C)CCN1c1cc(NC(=O)Cn2cc(-c3cc(C(N)=O)c(O)c(F)c3F)c3c(=O)n4c(nc32)CCC4)c(Cl)cn1` [I-4, (S)-5-(1-(2-((5-chloro-2-(2,4-dimethylpiperazin-1-yl)pyridin-4-yl)amino)-2-oxoethyl)-4-oxo-4,6,7,8-tetrahydro-1H-dipyrrolo [1,2-a:2′,3′-d]pyrimidin-3-yl)-3,4-difluoro-2-hydroxybenzamide] showed a pKd of 7.63. The pEC50 in test [2] (setting [4]) was 6.51. The pIC50 in test [3] (setting [5]) is 6.50.
As for `C[C@H]1CNCCN1c1cc(NC(=O)Cn2cc(-c3cc(C(N)=O)c(O)c4c3OCO4)c3c(=O)n4c(nc32)CC(C)(C)C4)c(Cl)c(F)n1` [I-96, (S)-7-(1-(2-((3-chloro-2-fluoro-6-(2-methyl-piperazin-1-yl)pyridin-4-yl)amino)-2-oxo-ethyl)-7,7-dimethyl-4-oxo-4,6,7,8-tetrahydro-1H-dipyrrolo[1,2-a:2′,3′-d]pyrimidin-3-yl)-4-hydroxybenzo[d][1,3] dioxole-5-carboxamide], the pKd in test [1] is 9.02. The pEC50 in test [2] was 7.85. Moreover, the pIC50 in test [3] is 7.76.
`COc1c(O)c(C(N)=O)cc(-c2cn(CC(=O)Nc3cc(N4CCN(C)C[C@@H]4C)ncc3Cl)c3nc4n(c(=O)c23)CCC4)c1F` [I-17, (S)-5-(1-(2-((5-chloro-2-(2,4-dimethyl-piperazin-1-yl)pyridin-4-yl)amino)-2-oxoethyl)-4-oxo-4,6,7,8-tetrahydro-1H-dipyrrolo[1,2-a:2′,3′-d]pyrimidin-3-yl)-4-fluoro-2-hydroxy-3-methoxybenzamide] had a pKd in test [1] of 7.30. For the same compound, the pEC50 in test [2] (setting [4]) was 6.01. Besides, the pIC50 in test [3] (setting [5]) is 6.07.
In the case of `COc1c(O)c(C(N)=O)cc(-c2cn(CC(=O)Nc3cc(N4CCOC[C@@H]4C)nc(F)c3Cl)c3nc4n(c(=O)c23)CCC4)c1F` [I-16, (S)-5-(1-(2-((3-chloro-2-fluoro-6-(3-methyl-morpholino)pyridin-4-yl)amino)-2oxoethyl)-4-oxo-4,6,7,8-tetra-hydro-1H-dipyrrolo [1,2-a:2′,3′-d]pyri-midin-3-yl)-4-fluoro-2-hydroxy-3-methoxy-benzamide], in test [3], the pIC50 was 6.29.
With `COc1c(O)c(C(N)=O)cc(-c2cn(CC(=O)Nc3cc(N4CCN(C)C[C@@H]4C)nc(F)c3Cl)c3nc4n(c(=O)c23)CCC4)c1F` [I-15, (S)-5-(1-(2-((3-chloro-6-(2,4-dimethylpiperazin-1-yl)-2-fluoropyridin-4-yl)amino)-2-oxoethyl)-4-oxo-4,6,7,8-tetrahydro-1H-dipyrrolo[1,2-a:2′,3′-d]pyrimidin-3-yl)-4-fluoro-2-hydroxy-3-methoxybenzamide], the pKd in test [1] was 7.47. Moreover, in test [3], the pIC50 is 6.43.

Broadly, the pKd is −log10 of the Kd, conventionally taken in molar units. High values mean a low Kd, low ones a high Kd. The pEC50 is the negative decadic logarithm of the EC50, by convention in mol/L. What is called pIC50 is −log10 of the IC50, conventionally taken in molar units.
